According to PMC11124822, “Discovery and Anticancer Screening of Novel Oxindole-Based Derivative Bearing Pyridyl Group as Potent and Selective Dual FLT3/CDK2 Kinase Inhibitor” (Pharmaceuticals, 2024):

What was measured:
SF-295 = assay: NCI-60 antiproliferative screen (SRB); format: cell-based, human; conditions: Homo sapiens; 10 µM single dose, 48 h; SF-295 (CNS); read-out: Growth inhibition (%)
HOP-62 = assay: NCI-60 antiproliferative screen (SRB); format: cell-based, human; conditions: Homo sapiens; 10 µM single dose, 48 h; HOP-62 (NSCLC); read-out: Growth inhibition (%)
SK-MEL-5 = assay: NCI-60 antiproliferative screen (SRB); format: cell-based, human; conditions: Homo sapiens; 10 µM single dose, 48 h; SK-MEL-5 (Melanoma); read-out: Growth inhibition (%)
NCI-H23 = assay: NCI-60 antiproliferative screen (SRB); format: cell-based, human; conditions: Homo sapiens; 10 µM single dose, 48 h; NCI-H23 (NSCLC); read-out: Growth inhibition (%)
[1] = system: NCI-60 human cancer cell lines; assay: NCI-60 screen, full panel summary; format: cell-based; conditions: 10 µM single dose; for Mean Growth Percent: all NCI-60 cell lines
Protocol: In a comprehensive test, compounds were assayed at a single dose concentration (10^−5 M) in the full panel of NCI-60 cancer cell lines.

MDA-MB-435 = assay: NCI-60 antiproliferative screen (SRB); format: cell-based, human; conditions: Homo sapiens; 10 µM single dose, 48 h; MDA-MB-435 (Melanoma); read-out: Growth inhibition (%)
M14 = assay: NCI-60 antiproliferative screen (SRB); format: cell-based, human; conditions: Homo sapiens; 10 µM single dose, 48 h; M14 (Melanoma); read-out: Growth inhibition (%)
SF-539 = assay: NCI-60 antiproliferative screen (SRB); format: cell-based, human; conditions: Homo sapiens; 10 µM single dose, 48 h; SF-539 (CNS); read-out: Growth inhibition (%)
SN12C = assay: NCI-60 antiproliferative screen (SRB); format: cell-based, human; conditions: Homo sapiens; 10 µM single dose, 48 h; SN12C (Renal); read-out: Growth inhibition (%)
TK-10 = assay: NCI-60 antiproliferative screen (SRB); format: cell-based, human; conditions: Homo sapiens; 10 µM single dose, 48 h; TK-10 (Renal); read-out: Growth inhibition (%)
HCC-2998 = assay: NCI-60 antiproliferative screen (SRB); format: cell-based, human; conditions: Homo sapiens; 10 µM single dose, 48 h; HCC-2998 (Colon); read-out: Growth inhibition (%)
HOP-92 = assay: NCI-60 antiproliferative screen (SRB); format: cell-based, human; conditions: Homo sapiens; 10 µM single dose, 48 h; HOP-92 (NSCLC); read-out: Growth inhibition (%)
RXF 393 = assay: NCI-60 antiproliferative screen (SRB); format: cell-based, human; conditions: Homo sapiens; 10 µM single dose, 48 h; RXF 393 (Renal); read-out: Growth inhibition (%)
SK-MEL-2 = assay: NCI-60 antiproliferative screen (SRB); format: cell-based, human; conditions: Homo sapiens; 10 µM single dose, 48 h; SK-MEL-2 (Melanoma); read-out: Growth inhibition (%)
HCT-116 = assay: NCI-60 antiproliferative screen (SRB); format: cell-based, human; conditions: Homo sapiens; 10 µM single dose, 48 h; HCT-116 (Colon); read-out: Growth inhibition (%)
SNB-75 = assay: NCI-60 antiproliferative screen (SRB); conditions: Homo sapiens, SNB-75, 48 h, read-out: Growth inhibition (%)
Protocol: Anticancer activity was tested against 60 cancer cell lines (NCI-60) after 48h treatments with a single dosage of 10 μM of compounds by using sulforhodamine B assay [39] on the traditional 96-well platform. […] The human cancer cell lines of the NCI-60 panel are grown in RPMI 1640 medium supplemented with 5% FBS (fetal bovine serum) and 2 mM L-glutamine. […] For further analysis of promising compounds, five dose screens were performed against the NCI-60 panel. Drug treatments are performed in 5 doses using 10-fold or ½ log dose dilutions.

HS 578T = assay: NCI-60 antiproliferative screen (SRB); format: cell-based, human; conditions: Homo sapiens; 10 µM single dose, 48 h; HS 578T (Breast); read-out: Growth inhibition (%)
T-47D = assay: NCI-60 antiproliferative screen (SRB); format: cell-based, human; conditions: Homo sapiens, T47D; 10 µM single dose, 48 h; T-47D (Breast); read-out: Growth inhibition (%)
COLO 205 = assay: NCI-60 antiproliferative screen (SRB); format: cell-based, human; conditions: Homo sapiens; 10 µM single dose, 48 h; COLO 205 (Colon); read-out: Growth inhibition (%)
786-0 = assay: NCI-60 antiproliferative screen (SRB); format: cell-based, human; conditions: Homo sapiens; 10 µM single dose, 48 h; 786-0 (Renal); read-out: Growth inhibition (%)
SW-620 = assay: NCI-60 antiproliferative screen (SRB); format: cell-based, human; conditions: Homo sapiens; 10 µM single dose, 48 h; SW-620 (Colon); read-out: Growth inhibition (%)
U251 = assay: NCI-60 antiproliferative screen (SRB); format: cell-based, human; conditions: Homo sapiens, U-251; 10 µM single dose, 48 h; U251 (CNS); read-out: Growth inhibition (%)
NCI/ADR-RES = assay: NCI-60 antiproliferative screen (SRB); format: cell-based, human; conditions: Homo sapiens; 10 µM single dose, 48 h; NCI/ADR-RES (Ovarian); read-out: Growth inhibition (%)
K-562 = assay: NCI-60 antiproliferative screen (SRB); format: cell-based, human; conditions: Homo sapiens, K562; 10 µM single dose, 48 h; K-562 (Leukemia); read-out: Growth inhibition (%)
MDA-MB-231 = assay: NCI-60 antiproliferative screen (SRB); format: cell-based, human; conditions: Homo sapiens; 10 µM single dose, 48 h; MDA-MB-231 (Breast); read-out: Growth inhibition (%)
PC-3 = assay: NCI-60 antiproliferative screen (SRB); format: cell-based, human; conditions: Homo sapiens; 10 µM single dose, 48 h; PC-3 (Prostate); read-out: Growth inhibition (%)
HT29 = assay: NCI-60 antiproliferative screen (SRB); format: cell-based, human; conditions: Homo sapiens, HT-29; 10 µM single dose, 48 h; HT29 (Colon); read-out: Growth inhibition (%)

Compound	inhibition at 10 µM (SF-295) [%]	inhibition at 10 µM (HOP-62) [%]	inhibition at 10 µM (SK-MEL-5) [%]	inhibition at 10 µM (NCI-H23) [%]	Positive Cytostatic Effect (cell lines with percent growth from 0 to 50 / total number of cell lines) [1]	Positive Cytotoxic Effect (cell lines with percent growth of <0 / total number of cell lines) [1]	Sensitive/Total Cell Lines [1]	Mean Growth Percent [1]	inhibition at 10 µM (MDA-MB-435) [%]	inhibition at 10 µM (M14) [%]	inhibition at 10 µM (SF-539) [%]	inhibition at 10 µM (SN12C) [%]	inhibition at 10 µM (TK-10) [%]	inhibition at 10 µM (HCC-2998) [%]	inhibition at 10 µM (HOP-92) [%]	inhibition at 10 µM (RXF 393) [%]	inhibition at 10 µM (SK-MEL-2) [%]	inhibition at 10 µM (HCT-116) [%]	inhibition at 10 µM (SNB-75) [%]	inhibition at 10 µM (HS 578T) [%]	also measured
O=C1Nc2ccccc2C1=Cc1ccc(OCc2cccnc2)cc1 (mixture of isomers) [Compound 5i, (E/Z)-3-[4-(Pyridin-3-ylmethoxy)benzylidene]indolin-2-one]	31.2	37.2	59.4	42.4	17/56	0/56	17/56	34.95	60.9	37.6	36.2	27.1	-15.7	-2.08	35.4	24.9	24.1	56.5	-1.11	17.6	The Most Sensitive Cell Line [1]: KM12; inhibition at 10 µM (T-47D): 51%; inhibition at 10 µM (COLO 205): 26.1%; inhibition at 10 µM (786-0): 17.2%; inhibition at 10 µM (SW-620): 19.9%; inhibition at 10 µM (U251): 53.2%; inhibition at 10 µM (NCI/ADR-RES): 55%; inhibition at 10 µM (K-562): 75.9%; inhibition at 10 µM (MDA-MB-231): 35.4%; inhibition at 10 µM (PC-3): 29.8%; inhibition at 10 µM (HT29): 32.7%
O=C1Nc2ccc(F)cc2C1=Cc1ccc(OCc2cccnc2)cc1 (mixture of isomers) [Compound 5j, (E/Z)-5-Fluoro-3-[4-(pyridin-3-ylmethoxy)benzylidene]indolin-2-one]	54.8	45.4	113	58.2	32/56	1/56	33/56	53.95	98.3	67.1	63.3	46.1	-1.92	23.4	25.8	37.3	50.4	84.7	-5.67	37.4	The Most Sensitive Cell Line [1]: SK-MEL-5; number of cell lines with cytostatic effects [1]: 32; number of cell lines with cytotoxic effects [1]: 1; inhibition at 10 µM (T-47D): 66.7%; melting point: 187 to 189 °C; inhibition at 10 µM (COLO 205): 46.1%; inhibition at 10 µM (786-0): 24.2%; inhibition at 10 µM (SW-620): 70.1%; inhibition at 10 µM (U251): 83.7%; inhibition at 10 µM (NCI/ADR-RES): 85.6%; inhibition at 10 µM (K-562): 86.1%; inhibition at 10 µM (MDA-MB-231): 42%; inhibition at 10 µM (PC-3): 43.6%; inhibition at 10 µM (HT29): 84.1%
O=C1Nc2ccc(Cl)cc2C1=Cc1ccc(OCc2cccnc2)cc1 (mixture of isomers) [Compound 5k, (E/Z)-5-Chloro-3-[4-(pyridin-3-ylmethoxy)benzylidene] indolin-2-one]	4.51	0.56	11.4	16.7	5/56	0/56	5/56	14.49	29.3	12.2	20.2	9.17	-37.8	-9.21	-1.4	6.84	0.36	34.6	-10.2	3.67	inhibition at 10 µM (T-47D): 23.2%; melting point: 199 to 201 °C; inhibition at 10 µM (COLO 205): 5.66%; inhibition at 10 µM (786-0): 1.47%; inhibition at 10 µM (SW-620): 2.62%; inhibition at 10 µM (U251): 27.3%; inhibition at 10 µM (NCI/ADR-RES): 26%; inhibition at 10 µM (K-562): 38.8%; inhibition at 10 µM (MDA-MB-231): 9.08%; inhibition at 10 µM (PC-3): 24.3%; inhibition at 10 µM (HT29): 18.1%
